Measurements from patent EP0571511B1, “NOVEL UREAS AND THIOUREAS, PREPARATION THEREOF AND APPLICATION IN THERAPY” (priority 1991, dated 1992).

Target: acétylcholinestérase (Homo sapiens, UniProt P22303)
Assay: biochemical
Conditions: Inhibition de l'activité de l'acétylcholinestérase; read-out: IC₅₀
From the text: Les composés de l'invention ont été soumis à des essais pharmacologiques qui ont montré leur intérét en tant qu'inhibiteurs de l'acétylcholinestérase.

Sequence of acétylcholinestérase (P22303 32-614, species assumed): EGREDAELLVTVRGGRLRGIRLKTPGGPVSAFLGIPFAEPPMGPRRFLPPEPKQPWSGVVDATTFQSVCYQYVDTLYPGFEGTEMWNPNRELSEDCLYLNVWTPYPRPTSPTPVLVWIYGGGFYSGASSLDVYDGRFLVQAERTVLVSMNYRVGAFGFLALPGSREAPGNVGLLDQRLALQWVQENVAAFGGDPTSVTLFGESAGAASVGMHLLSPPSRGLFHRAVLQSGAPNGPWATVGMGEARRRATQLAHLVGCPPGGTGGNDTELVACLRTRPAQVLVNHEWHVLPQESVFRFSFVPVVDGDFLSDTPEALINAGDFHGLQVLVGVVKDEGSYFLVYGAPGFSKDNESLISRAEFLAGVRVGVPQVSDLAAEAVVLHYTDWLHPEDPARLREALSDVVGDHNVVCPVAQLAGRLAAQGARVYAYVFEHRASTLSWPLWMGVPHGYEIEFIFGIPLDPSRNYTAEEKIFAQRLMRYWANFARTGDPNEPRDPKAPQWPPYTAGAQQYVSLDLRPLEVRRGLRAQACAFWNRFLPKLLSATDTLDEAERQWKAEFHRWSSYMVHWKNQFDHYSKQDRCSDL

## O=C(NC(=S)NCCC1CCN(Cc2ccccc2)CC1)c1ccc2c(c1)OCO2 [compound 12]
  IC50: 0.018 µM
